We go through four substances from US20060063162A1, “Biological marker for inflammation” (priority 2004, published 2006).

Holding throughout (format): cell-based, human
Assay [1] concerns PSG expression in coronary arterial smooth muscle cells. Briefly: Microarray analysis of PSG gene expression in coronary artery smooth muscle cells after atherogenic stimuli. Particulars: for PSG 2 expression / PSG6 expression / PSG1 expression response: SMCs from coronary artery; for PSG expression: coronary arterial smooth muscle cells, after treatment. From the text: (§1) Vein and artery respond differently to atherogenic lesion under different conditions. […] However, venous bypass grafts can develop accelerated atherosclerosis in vein graft disease for patients after bypass surgery. […] This could possibly be explained by the different roles of endothelial and smooth muscle cells in the development of atherosclerosis. Endothelial cells (EC) are critical in the initiation of atherosclerosis, while smooth muscle cells (SMC) are closely related to the evolution of the atheroma. The global gene expression responses to various atherogenic stimulations between human venous and arterial cells have been determined to identify genes that may contribute to different susceptibilities to atherosclerosis.
(§2) When gene expression of untreated saphenous vein endothelial cells (SVEC) and coronary artery endothelial cells (CAEC) were compared by microarray analysis, five isoforms (PSG1, PSG3, PSG6, PSG7 and PSG9) out of 9 isoforms in the arrays were higher (>1.5 fold and P<0.005) in SVEC than CAEC. In untreated saphenous vein smooth muscle cells (SVSM) and coronary artery smooth muscle cells (CASM), all 9 isoforms of PSGs in the arrays are expressed higher in SVSM than CASM (See Table 1). It is unlikely a false positive result from arrays, since the result was obtained from 4 separate primary cultures from two-donors and more than 5 microarray data sets, and multiple PSG isoforms had similar changes. […] In basal state, PSG expression is higher in vein than artery.
Oxidized LDL (OxLDL), a key atherogenic factor, pro-inflammatory cytokines TNFα and IL1β, as well as cytokines regulating cell proliferation, differentiation and migration like PDGF and TGFβ all up-regulate PSG expression in coronary arterial smooth muscle cells.

Assay [2] relates to PSG expression in SMCs from saphenous vein. As to the kind of experiment: Microarray analysis of PSG gene expression in saphenous vein smooth muscle cells after atherogenic stimuli.
Text: as §1, §2
The gene expression of PSG isoforms is quite different between the two SMCs. In SMCs from saphenous vein, TGFβ and TNFα down-regulate the expression of PSG1. TGFβ also down-regulates PSG9.

The test system of assay [3] is PSG expression in endothelial cells from vein. Briefly: Microarray analysis of PSG gene expression in saphenous vein endothelial cells after atherogenic stimuli. The conditions noted are these: after treatment.
Text: as §1
When gene expression of untreated saphenous vein endothelial cells (SVEC) and coronary artery endothelial cells (CAEC) were compared by microarray analysis, five isoforms (PSG1, PSG3, PSG6, PSG7 and PSG9) out of 9 isoforms in the arrays were higher (>1.5 fold and P<0.005) in SVEC than CAEC. In untreated saphenous vein smooth muscle cells (SVSM) and coronary artery smooth muscle cells (CASM), all 9 isoforms of PSGs in the arrays are expressed higher in SVSM than CASM (See Table 1). […]

The subject of assay [4] is PSG expression in endothelial cells from artery. As to the kind of experiment: Microarray analysis of PSG gene expression in coronary artery endothelial cells after atherogenic stimuli. The conditions noted are these: after treatment.

PDGF: in assay [1], the “PSG 2 expression” value is recorded as “up-regulated”, the PSG6 expression result is “up-regulated” and the PSG expression result was “up-regulate”.
As to TNFα, in assay [1], the “PSG 2 expression” value is recorded as “up-regulated”, the PSG6 expression entry is on record as “up-regulated” and the PSG expression entry was “up-regulate”. Moreover, the PSG1 expression entry in assay [2] is reported as “down-regulate”. The PSG expression entry in assay [3] is listed as “No significant change”. In addition, the PSG expression result in assay [4] is listed as “No significant change”.
On to TGFβ, for which, in assay [1], the PSG1 expression response entry was “opposite responses”, the “PSG 2 expression” value is listed as “up-regulated”, the PSG6 expression entry was “up-regulated” and the PSG expression result was “up-regulate”. In addition, in assay [2], the PSG1 expression entry is “down-regulate” and the PSG9 expression entry is listed as “down-regulates”.
Regarding IL1β: pro-inflammatory cytokine, in assay [1], the PSG1 expression response entry is “opposite responses”, the “PSG 2 expression” value is listed as “up-regulated”, the PSG6 expression result is recorded as “up-regulated” and the PSG expression result is “up-regulate”. In assay [3], the PSG expression result was “No significant change”. In addition, the PSG expression entry in assay [4] is given as “No significant change”.
